Laboratory results reported in patent US12521425B2, “Method of liver cancer treatment with safranal-based formulations” (priority 2019, dated 2026).
Like-named read-outs stand apart in the source and are kept apart here.

Columns and labels:
HepG2 cells = test: SRB assay, cytotoxicity of topotecan ± safranal; format: cell-based; settings: for IC50: Homo sapiens
Description: SRB assay. The effect of safranal on the cytotoxicity of the topoisomerase 1 inhibitor topotecan was tested using the sulforhodamine-B (SRB) assay as previously described. Exponentially growing HepG2 cells were seeded in 96-well plates at cell density of 1×10^4 cells per well. […] At the end of the incubation period, cells were fixed with 50% trichloroacetic acid (TCA) for 1 hours at 4° C. followed by washing, staining with SRB for 30 min followed by washing and solubilization of the stain with 10 mM Tris base (pH 10.5). The optical density (OD) at each well was measured spectrophotometrically at 564 nm with an ELISA microplate reader (Metertech. S960, USA). The IC50 values were calculated using sigmoidal concentration-response curve fitting models (Graph Pad, Prizm software).

[1] = tested on: DEN-induced hepatic neoplasia; test: Serum ALT and AST in DEN-induced HCC model; format: in vivo, male Wistar rats; settings: HCC rats, oral gavage 5 days a week, weeks 17-19, safranal 200 mg/kg, sorafenib 10 mg/kg, mean±SEM, n=6
Description: A modified version of the protocol described by DePeralta et al. (2016) and Schiffer et al. (2005) was used here to establish the hepatocarcinogenesis model.
On the first 15 weeks, the control PBS group was treated with 1×PBS, whereas the experimental groups were given an intraperitoneal injection (IP) of 50 mg/kg of diethylnitrosoamine (DEN, Sigma Aldrich), a widely used chemical for inducing cancer, once a week. DEN was diluted with 1×PBS. Following a one-week break (week 16), the next three weeks (weeks 17 to 19) of treatment commenced. All drugs were administrated by oral gavage. All doses were chosen according to literature (Alsaied et al., 2014; Karafakioglu et al., 2017). For the HCC+sorafenib group, the drug (Carbosynth Limited) was administered at a dose of 10 mg/kg, five days a week. For the HCC+safranal group, the drug (Sigma Aldrich) was administered at a dose of 200 mg/kg, five days a week. For the HCC+safranal+sorafenib group, the drugs were administered at a dose of 200 mg/kg safranal+10 mg/kg sorafenib, five days a week. Both safranal and sorafenib were diluted with 1×PBS and drops of Tween 80. […] After 24-hours from last treatment, the rats were euthanized by mild diethyl ether and dissected in equal conditions. Blood and whole liver were collected.
Rats were euthanized then blood was collected by decapitation and processed for later investigation. The blood was collected in collection tubes (BD Vacutainer) and serum was separated by centrifugation at 1200× g for 10 minutes. Serum was collected and flash frozen immediately then stored at −80° C. for further analysis.
Alanine Transaminase (ALT), and Aspartate Aminotransferase (AST) assays were performed using commercial kits (Abcam), according to the protocol provided. ALT and AST activities were measured spectrophotometrically using Epoch by BioTek.

Q: With `CC[C@@]1(O)C(=O)OCc2c1cc1n(c2=O)Cc2cc3c(CN(C)C)c(O)ccc3nc2-1` [Topotecan, topotecan] as the compound, how does the sensitization factor (HepG2 cells; HepG2, incubation with safranal for 24 or 48 h before topotecan) read?
A: 73

Q: What about the IC50 (HepG2 cells; HepG2, HepG2, SRB, topotecan 48 h alone or after safranal 500 μM pre-incubation, read-out: IC50 of topotecan ± safranal) of the same compound?
A: 118 nM

Q: And the IC50 (HepG2 cells; HepG2, HepG2, incubation with safranal for 24 or 48 h before topotecan, read-out: topotecan IC50)?
A: 1.6 nM

Q: And the IC50 (HepG2 cells; HepG2, HepG2, topotecan alone, read-out: topotecan IC50)?
A: 118 nM

Q: Which ALT [1] does the source give for `CNC(=O)c1cc(Oc2ccc(NC(=O)Nc3ccc(Cl)c(C(F)(F)F)c3)cc2)ccn1` [sorafenib, reference compound] here?
A: 13.42 ± 1.12 mU/ml

Q: What about the AST [1] of the same compound?
A: 11.14 ± 0.62 mU/ml
